Results as given in publication PMC9490060, “Synthesis and evaluation of anticancer activity of quillaic acid derivatives: A cell cycle arrest and apoptosis inducer through NF-κB and MAPK pathways” (Frontiers in Chemistry, 2022).

How the values were obtained:
Bcl-2 = experiment: Western blot, Bcl-2 expression; format: cell-based, human; details: HCT116, 10 μM, 24 h
Protocol: (§1) The Bcl-2 protein family (including the anti-apoptotic protein Bcl-2 and the pro-apoptotic protein Bax) is a group of key apoptotic proteins that play an important role in the regulation of apoptosis ([Han et al., 2013]; [Zhang and Saghatelian, 2013]; [Zheng et al., 2021]). HCT116 cells were treated with different concentrations (2.5, 5, and 10 μM) of E to detect the expression of Bax and Bcl-2 proteins.
(§2) FIGURE 7 Effect of compound E on the levels of Bax, and Bcl-2 in HCT116 cells. Cells were pretreated with the various concentrations of compound E (2.5, 5 and 10 μM) for 24 h. The expression of Bax, and Bcl-2 were analyzed by Western blot. ***p < 0.001, **p < 0.01, *p < 0.05 vs. control group. The error bars represent the mean ± SD for three independent experiments.
(§3) HCT116 cells were cultured with different concentrations of compound E for 24 h. Then, the floating cells were collected and washed twice with ice-cold PBS. Add cold RIPA buffer. After the cells were lysed on ice for 20 min, the lysate was centrifuged at 12,000 rpm for 15 min at 4°C. The BCA method determines the protein concentration. Separated by SDS/PAGE electrophoresis and transferred to a nitrocellulose filter membrane for Western blot analysis. The membrane was blocked with PBS containing 5% skim milk at room temperature for 2 h. […] The protein is detected by electrochemiluminescence (Bio-Rad, CA, United State).

IκB = experiment: Western blot, NF-κB signaling pathway: IκB; format: cell-based, human; details: HCT116, 2.5, 5 and 10 μM, 24 h
From the text: The NF-κB pathway plays an important role in a variety of cellular functions, including cell growth, apoptosis, and tumorigenesis ([Hwang et al., 2012]). Interfering with NF-κB signaling can inhibit tumor cell proliferation and metastasis ([Yenmis et al., 2021]). Therefore, NF-κB inhibitors are considered as potential anticancer drugs ([Wang et al., 2017]).
as §2, with “8” for “7”, “NF-κB signaling pathway” for “the levels of Bax, and Bcl-2”, “phospho-NF-κB p65, NF-κB p65, phospho-IκB, IκB” for “Bax, and Bcl-2”
as §3

Bax = experiment: Western blot, Bax expression; format: cell-based, human; details: HCT116, 10 μM, 24 h
Protocol: as §1, §2, §3

JNK = experiment: Western blot, MAPK signaling pathway: JNK; format: cell-based, human; details: HCT116, 10 μM, 24 h
From the text: Extracellular signal-regulated kinases are the most closely related MAPK. MAPK, a family of serine/threonine protein kinases, is also an important transmitter of signaling from the cell surface to the nucleus, and it is involved in the regulation of many physiological processes, including apoptosis ([Bian et al., 2021]). The MAPK pathway has been implicated in regulating tumor angiogenesis, proliferation, metastasis and invasion ([Ko et al., 2017]). MAPK family is mainly composed of ERK, p38 and JNK subfamily.
as §2, with “9” for “7”, “[…]” for “the levels of Bax, and Bcl-2”, “phospho-ERK, ERK, phospho-JNK, JNK, phospho-p38, p38” for “Bax, and Bcl-2”
HCT116 cells were cultured with different concentrations of compound E for 24 h. Then, the floating cells were collected and washed twice with ice-cold PBS. Add cold RIPA buffer. After the cells were lysed on ice for 20 min, the lysate was centrifuged at 12,000 rpm for 15 min at 4°C. The BCA method determines the protein concentration. […] The protein is detected by electrochemiluminescence (Bio-Rad, CA, United State).

[1] = test system: SW620 (human colorectal cancer cell line); experiment: MTT anti-proliferative assay, SW620; format: cell-based; details: means ± SD, n = 3

IC50 values SW620 ([1]; 48 h incubation): strong activity
IC50 ([1]; Homo sapiens, SW-620, 48 h incubation): 4.69 ± 1.1 µM
Structure (SMILES): CC1(C)CC[C@]2(C(=O)OCCn3nnnc3-c3ccccc3)[C@H](O)C[C@]3(C)C(=CC[C@@H]4[C@@]5(C)CC[C@H](O)[C@@](C)(C=O)[C@@H]5CC[C@]43C)[C@@H]2C1 [Compound E, 2-(5-phenyl-1H-tetrazol-1-yl)ethyl (4aR,5R,6aS,6bR,8aR,9S,10S,12aR,12bR,14bS)-9-formyl-5,10-dihydroxy-2,2,6a,6b,9,12a-hexamethyl-1,3,4,5,6,6a,6b,7,8,8a,9,10,11,12,12a,12b,13,14b-octadecahydropicene-4a (2H)-carboxylate]
level of Bcl-2 (Bcl-2): decreased
phosphorylation and degradation of IκB (IκB): inhibited the phosphorylation and degradation of IκB
expression of Bax (Bax): significantly increased
phosphorylation level of JNK (JNK): down-regulated
